Data on 21 compounds can be found in US20090029992A1, “SUBSTITUTED PYRAZOLE COMPOUNDS” (priority 2007, published 2009).

The target in assay [1] is T1, N-terminal His6-tagged recombinant human KDR, residues 790-end (Homo sapiens, UniProt P35968).
T1 construct: recombinant human KDR, residues 790-end; His6 (N); purchased Upstate USA Inc, 706 Forest Street, Charlottesville, Va
The assay is described as follows: KDR kinase inhibition assay (33P-ATP filter assay). The format is biochemical. The gist of the method: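 Radiometric filter assay: reaction started with Mg acetate (10 mM)/[γ-33P]ATP mix, run 40 min at room temperature in 8 mM MOPS pH 7.0 with 0.2 mM EDTA, MBP substrate (0.33 mg/mL) and recombinant KDR 790-end (5-10 mU). Phosphate incorporation by scintillation counting of P30 filtermats, compared with uninhibited reactions.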

For the next assay, the target named is T2, recombinant Aurora A (Homo sapiens, UniProt O14965).
T2 construct: purchased Upstate, Lake Placid, N.Y
T2 sequence (O14965 1-403): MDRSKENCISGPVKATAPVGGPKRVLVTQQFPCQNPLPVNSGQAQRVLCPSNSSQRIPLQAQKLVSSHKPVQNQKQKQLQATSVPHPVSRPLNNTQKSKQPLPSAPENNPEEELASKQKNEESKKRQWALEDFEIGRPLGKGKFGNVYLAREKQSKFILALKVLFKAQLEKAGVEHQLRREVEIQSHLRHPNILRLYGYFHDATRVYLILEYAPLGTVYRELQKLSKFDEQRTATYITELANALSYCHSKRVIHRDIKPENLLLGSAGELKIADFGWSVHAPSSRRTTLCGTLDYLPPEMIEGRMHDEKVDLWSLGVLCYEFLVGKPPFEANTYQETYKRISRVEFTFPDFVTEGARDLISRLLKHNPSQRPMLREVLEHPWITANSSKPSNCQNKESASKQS
The assay is described as follows: Aurora A (Aurora 2) inhibition assay, Z'-Lyte kinase assay. The format is biochemical. To be noted: ATP 10 μM, 1 h. As to the method: Compounds were tested for their potency against recombinant Aurora A (Upstate, Lake Placid, N.Y.) using the PanVera Z′-Lyte kinase assay kit—Ser/Thr 1 peptide (Invitrogen, Carlsbad, Calif.). Assays were carried out in kinase assay buffer (50 mM HEPES, pH 7.5, 10 mM MgCl2, 5 mM EGTA, 0.05% Brij-35, 2 mM DTT). Test compounds were initially dissolved in DMSO at 100× the highest tested concentration, then serially diluted to 4× test concentrations in kinase assay buffer. Next, Aurora A (final concentration 200-500 ng/mL), Z′-Lyte Ser/Thr 1 peptide (final concentration 2 μM) and ATP (final concentration 10 μM) were added according to the manufacturer's instructions. Assays were carried out in half-area 96-well white polystyrene assay plates (Corning, Corning, N.Y.) in a final volume of 20 μl. The reaction was allowed to proceed for 1 h at room temperature in the dark, at which point the development reagent and stop reagent were added according to the manufacturer's instructions. Coumarin (Ex. 400 nm, Em. 465 nm) and fluorescein (Ex. 400 nm, Em. 565 nm) fluorescence values were measured on a SpectraFluor Plus plate reader (Tecan, Durham, N.C.). The emission ratio (coumarin/fluorescein) was determined and used to calculate the percent phosphorylation for each well. Wells containing substrate but no kinase and wells containing a phosphopeptide control were used to set 0% and 100% phosphorylation values, respectively. Typically 20-40% of the substrate was phosphorylated in wells without inhibitor. Dose-response curves of relative Aurora A activity vs. inhibitor concentration were plotted with Grafit (Erithacus Software, Horley, Surrey, UK).

Another assay has as its system HCT116 cells. The assay can be described thus: Whole cell cytotoxicity assay, Sulforhodamine B. The format is cell-based. To be noted: Homo sapiens, HCT-116, HCT116, 96 hours incubation, SRB; for GI50: read-out: GI50 HCT116 cell growth; for IC50: read-out: IC50 values in this assay (HCT116 cell growth). The gist of the method: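 HCT116 cells (500/well) in DMEM/10% FBS/2 mM glutamine were preincubated 24 h, then exposed to compound for 96 h at 37 °C, 5% CO2, in duplicate. Cells were fixed with TCA and stained with sulforhodamine B (A570). GI50, TGI and LC50 were derived relative to a time-zero plate and an untreated control.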

Where [2] appears, read: group with IC50 greater than 100 nM.

Molecules are shown by their SMILES.

T1 sequence (P35968 790-1356 limits assumed): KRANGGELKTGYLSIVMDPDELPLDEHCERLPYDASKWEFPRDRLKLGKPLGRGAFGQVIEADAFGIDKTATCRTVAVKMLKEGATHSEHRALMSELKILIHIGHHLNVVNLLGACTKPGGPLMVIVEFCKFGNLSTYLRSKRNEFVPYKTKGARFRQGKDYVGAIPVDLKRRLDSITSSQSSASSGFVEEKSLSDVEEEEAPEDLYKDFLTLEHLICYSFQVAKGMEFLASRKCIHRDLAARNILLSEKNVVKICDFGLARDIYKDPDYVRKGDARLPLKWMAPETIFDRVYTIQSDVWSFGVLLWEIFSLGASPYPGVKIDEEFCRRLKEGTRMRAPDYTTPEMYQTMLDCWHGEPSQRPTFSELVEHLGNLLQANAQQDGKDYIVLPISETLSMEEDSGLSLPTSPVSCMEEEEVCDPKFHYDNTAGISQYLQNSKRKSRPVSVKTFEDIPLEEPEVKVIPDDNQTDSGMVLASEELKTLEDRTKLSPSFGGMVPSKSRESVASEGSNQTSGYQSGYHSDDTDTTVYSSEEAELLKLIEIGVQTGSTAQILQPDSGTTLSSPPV

A word on the IC50: it is the concentration that gives 50% inhibition. As usually defined, the GI50 is the concentration that inhibits growth by half. As for `Cc1cc(Nc2cc(N3CCN(C)CC3)nc(-c3cccc(C#N)c3)n2)n[nH]1` [Example 163, 3-(4-(5-methyl-1H-pyrazol-3-ylamino)-6-(4-methylpiperazin-1-yl)pyrimidin-2-yl)benzonitrile], the IC50 (in assay [1] (40 minutes at room temperature); at recombinant Aurora A) was no more than 100 nM throughout. The GI50 in the assay with HCT116 cells was no more than 1000 nM.

For the compound `CCc1ccccc1-c1nc(Nc2cc(C)[nH]n2)cc(NC2CCOCC2)n1` [Example 174, 2-(2-ethylphenyl)-N^4-(5-methyl-1H-pyrazol-3-yl)-N^6-(tetrahydro-2H-pyran-4-yl)pyrimidine-4,6-diamine], the IC50 in assay [1] (setting [2]) was no more than 1000 nM; on recombinant Aurora A (setting [2]), no more than 1000 nM; in the assay with HCT116 cells, 1000 to 10000 nM.

In the case of `Cc1cc(Nc2cc(NCCN3CCOCC3)nc(-c3cc4ccccc4n3C)n2)n[nH]1` [Compound 5, 2-(1-methyl-1H-indol-2-yl)-N^4-(5-methyl-1H-pyrazol-3-yl)-N^6-(2-morpholinoethyl)pyrimidine-4,6-diamine], the IC50 in assay [1] (setting [2]) was no more than 1000 nM; on recombinant Aurora A (setting [2]), no more than 1000 nM; in the assay with HCT116 cells, 1000 to 10000 nM.

Take `Cc1cc(Nc2cc(N3CCN(C)CC3)nc(-c3ccc(F)c(F)c3)n2)n[nH]1` [Example 168, 2-(3,4-difluorophenyl)-N-(5-methyl-1H-pyrazol-3-yl)-6-(4-methylpiperazin-1-yl)pyrimidin-4-amine]: the IC50 in assay [1] (setting [2]) is no more than 1000 nM; on recombinant Aurora A, no more than 100 nM. Besides, the GI50 in the assay with HCT116 cells is no more than 1000 nM.

In the case of `Cc1cc(Nc2cc(N3CCC(O)CC3)nc(-c3cc4ccccc4n3C)n2)n[nH]1` [Compound 3, 1-(6-(5-methyl-1H-pyrazol-3-ylamino)-2-(1-methyl-1H-indol-2-yl)pyrimidin-4-yl)piperidin-4-ol], the IC50 in assay [1] (40 minutes at room temperature) is no more than 100 nM; on recombinant Aurora A, no more than 100 nM; with HCT116 cells, 1000 to 10000 nM.

Turning to `Cc1cc(Nc2cc(NC3CCOCC3)nc(-c3cc4ccccc4o3)n2)n[nH]1` [Compound 15, 2-(benzofuran-2-yl)-N^4-(tetrahydro-2H-pyran-4-yl)-N^6-(5-methyl-1H-pyrazol-3-yl)-pyrimidine-4,6-diamine], the IC50 (in assay [1] (40 minutes at room temperature); on recombinant Aurora A) was no more than 100 nM throughout. Further, the GI50 in the assay with HCT116 cells is no more than 1000 nM.

As to `Cc1ccc(-c2nc(Nc3cc(C)[nH]n3)cc(N3CCN(C)CC3)n2)cc1` [Compound 38, N-(5-methyl-1H-pyrazol-3-yl)-6-(4-methylpiperazin-1-yl)-2-p-tolylpyrimidin-4-amine], the IC50 (in assay [1] (40 minutes at room temperature); on recombinant Aurora A) was no more than 100 nM each time. The GI50 with HCT116 cells was no more than 1000 nM.

In the case of `Cc1cc(Nc2cc(NC3CCOCC3)nc(-c3ccc(Cl)cc3)n2)n[nH]1` [Compound 22, 2-(4-chlorophenyl)-N^4-(5-methyl-1H-pyrazol-3-yl)-N^6-(tetrahydro-2H-pyran-4-yl)pyrimidine-4,6-diamine], the IC50 was no more than 1000 nM in assay [1] (setting [2]), no more than 1000 nM at recombinant Aurora A (setting [2]) and 1000 to 10000 nM with HCT116 cells.

Turning to `Cc1cc(Nc2cc(N3CCN(C)CC3)nc(-c3cccc(Cl)c3)n2)n[nH]1` [Compound 36, 2-(3-chlorophenyl)-N-(5-methyl-1H-pyrazol-3-yl)-6-(4-methylpiperazin-1-yl)pyrimidin-4-amine], the IC50 (in assay [1] (40 minutes at room temperature); on recombinant Aurora A) was no more than 100 nM throughout. Besides, in the assay with HCT116 cells, the concentration for 50% growth inhibition (GI50) is no more than 1000 nM.

As to `Cc1cc(Nc2cc(N3CCN(C)CC3)nc(-c3cccc(OCc4ccccc4)c3)n2)n[nH]1` [Example 188, 2-(3-(benzyloxy)phenyl)-N-(5-methyl-1H-pyrazol-3-yl)-6-(4-methylpiperazin-1-yl)pyrimidin-4-amine], the IC50 in assay [1] (setting [2]) is no more than 1000 nM; on recombinant Aurora A, no more than 100 nM; with HCT116 cells, 1000 to 10000 nM.

Turning to `Cc1cc(Nc2cc(N3CCN(C)CC3)nc(-c3ccccc3)n2)n[nH]1` [Compound 8, N-(5-methyl-1H-pyrazol-3-yl)-6-(4-methylpiperazin-1-yl)-2-phenyl pyrimidin-4-amine], the IC50 (in assay [1] (40 minutes at room temperature); at recombinant Aurora A) was no more than 100 nM in each case. For the same compound, in the assay with HCT116 cells, the GI50 is no more than 1000 nM.

As to `Cc1cc(Nc2cc(N3CCN(C)CC3)nc(-c3cccc(F)c3)n2)n[nH]1` [Compound 33, 2-(3-fluorophenyl)-N-(5-methyl-1H-pyrazol-3-yl)-6-(4-methylpiperazin-1-yl)pyrimidin-4-amine], the IC50 (in assay [1] (40 minutes at room temperature); at recombinant Aurora A) was no more than 100 nM each time. For the same compound, the GI50 in the assay on HCT116 cells was no more than 1000 nM.

Regarding `Cc1cc(Nc2cc(N3CCN(C)CC3)nc(-c3ccc(C(C)(C)C)cc3)n2)n[nH]1` [Compound 82, 2-(4-tert-butylphenyl)-N-(5-methyl-1H-pyrazol-3-yl)-6-(4-methylpiperazin-1-yl)pyrimidin-4-amine], the IC50 is no more than 1000 nM in assay [1] (setting [2]), no more than 100 nM on recombinant Aurora A and 1000 to 10000 nM in the assay with HCT116 cells.

Take `COC(=O)c1cccc(-c2nc(Nc3cc(C)[nH]n3)cc(N3CCN(C)CC3)n2)c1` [Example 166, methyl 3-(4-(5-methyl-1H-pyrazol-3-ylamino)-6-(4-methylpiperazin-1-yl)pyrimidin-2-yl)benzoate]: the IC50 (in assay [1] (40 minutes at room temperature); at recombinant Aurora A) was no more than 100 nM in each case. The GI50 with HCT116 cells is no more than 1000 nM.

Regarding `Cc1cc(Nc2cc(NC3CCOCC3)nc(-c3ccccc3)n2)n[nH]1` [Compound 12, N^4-(tetrahydro-2H-pyran-4-yl)-N^6-(5-methyl-1H-pyrazol-3-yl)-2-phenylpyrimidine-4,6-diamine], the half-maximal inhibitory concentration (IC50) (in assay [1] (40 minutes at room temperature); on recombinant Aurora A) was no more than 100 nM in each case. Further, the GI50 in the assay on HCT116 cells was no more than 1000 nM.

`Cc1cc(Nc2cc(NCCN3CCOCC3)nc(-c3ccccc3)n2)n[nH]1` [Compound 11, N^4-(5-methyl-1H-pyrazol-3-yl)-N^6-(2-morpholinoethyl)-2-phenylpyrimidine-4,6-diamine]: the IC50 (in assay [1] (40 minutes at room temperature); on recombinant Aurora A) was no more than 100 nM throughout. In addition, the GI50 in the assay with HCT116 cells is no more than 1000 nM.

Consider `Cc1cc(Nc2cc(N3CCN(C)CC3)nc(-c3cc4cc(NS(=O)(=O)C5CC5)ccc4o3)n2)n[nH]1` [Example 155, N-(2-(4-(5-methyl-1H-pyrazol-3-ylamino)-6-(4-methylpiperazin-1-yl)pyrimidin-2-yl)benzofuran-5-yl)cyclopropanesulfonamide], for which the IC50 (in assay [1] (40 minutes at room temperature); at recombinant Aurora A) was no more than 100 nM throughout. The GI50 in the assay on HCT116 cells was no more than 1000 nM.

Take `Cc1cc(Nc2cc(NC3CCOCC3)nc(-c3ccc(-c4ccccc4)cc3)n2)n[nH]1` [Example 158, 2-(biphenyl-4-yl)-N^4-(5-methyl-1H-pyrazol-3-yl)-N^6-(tetrahydro-2H-pyran-4-yl)pyrimidine-4,6-diamine]: the IC50 was no more than 1000 nM on recombinant Aurora A (setting [2]) and 1000 to 10000 nM in the assay on HCT116 cells.

For `Cc1cc(Nc2cc(N3CCN(C)CC3)nc(-c3ccc([N+](=O)[O-])cc3)n2)n[nH]1` [Example 164, N-(5-methyl-1H-pyrazol-3-yl)-6-(4-methylpiperazin-1-yl)-2-(4-nitrophenyl)pyrimidin-4-amine], the IC50 is no more than 1000 nM on recombinant Aurora A (setting [2]) and 1000 to 10000 nM with HCT116 cells.

Turning to `Cc1cc(Nc2cc(N3CCN(C)CC3)nc(-c3cccc(N(C)C)c3)n2)n[nH]1` [Compound 86, 2-(3-(dimethylamino)phenyl)-N-(5-methyl-1H-pyrazol-3-yl)-b-(4-methylpiperazin-1-yl)pyrimidin-4-amine], on recombinant Aurora A, the IC50 is no more than 100 nM. Further, the GI50 in the assay on HCT116 cells was no more than 1000 nM.

With `Cc1cc(Nc2cc(N3CCN(C)CC3)nc(-c3cc(F)cc(F)c3)n2)n[nH]1` [Example 170, 2-(3,5-difluorophenyl)-N-(5-methyl-1H-pyrazol-3-yl)-6-(4-methylpiperazin-1-yl)pyrimidin-4-amine], the IC50 on recombinant Aurora A was no more than 100 nM. In addition, the GI50 in the assay on HCT116 cells was no more than 1000 nM.
